{"source": "patent US9532967B2", "about": "“Use of phenethyl caffeate derivatives in the preparation of a medicament against tumor angiogenesis” (priority 2010, dated 2017)", "key": {"[1]": {"tested_on": "angiogenesis model by culturing stromal cells and vascular endothlial cells (ECs) together", "experiment": "Tumor angiogenesis mediated by pericytes (stromal cells co-cultured with vascular endothlial cells)", "format": "cell-based", "conditions": "for Length of the formed vessel network (Total Tube Length, TL, n = 8): control 436; for effect on tumor angiogenesis mediated by pericytes: concentrations of 50-100 μM, result in words", "method": "We constructed an angiogenesis model by culturing stromal cells and vascular endothlial cells (ECs) together. Stromal cells and endothlial cells were graciously provided by Vascular Biology Medical Center of Medical School of the State University in Indiana. The stromal cells were implanted into a cell culture dish, maintaining cell density of 6×10^6/cm^2, and ECs were implanted on the trophoblast cells of the stromal cells after the stromal cells were incubated in the EBM-2/5% FBS culture medium for 3 hours, with cell density of ECs reaching 1×10^6/cm^2. The two kinds of cells were co-cultured in EBM-2/5% FBS culture medium for six days, then the formation of tubular vessels was observed, and EC vessels were labeled through CD31 fluorescence staining and horseradish peroxidase staining.\nThen, the inhibition of compounds phenethyl caffeate and 3,4-diacetyl phenethyl caffeate with concentrations of 50-100 μM on tumor angiogenesis mediated by pericytes was studied."}, "[2]": {"tested_on": "human hepatocellular carcinoma BEL-7402 cell lines", "experiment": "Growth of tumors of BALB/c nude mice inoculated with BEL-7402 cells in vivo", "conditions": "20 mg/kg by gavage, 3 weeks", "method": "First, 1×10^6 cells of human hepatocellular carcinoma BEL-7402 cell lines were injected subcutaneously (sc) into the forelimbs of BALB/c male nude mice, and the mice with tumor were killed after the tumor was formed, the skin of the mice was cut off, and the complete tumor tissue was separated and removed, and then immersed into physiological saline and cut into pieces with diameter of 2 mm. The tumor tissue pieces were implanted subcutaneously into the forelimbs of nude mice in another group for drug experiments. The nude mice with tumor were randomly divided equally into an experimental group and control group, with 10 mice in each group. […] Experimental data, such as tumor size (i.e., long diameter a and short diameter b), experimental animal weight (g), etc., were recorded regularly, and photographs were taken. Measurement result was recorded every time, and the tumor volume and the ratio of tumor volume to tumor weight were calculated for each animal based on the measurement results.\nFormula for calculating the tumor volume is: v=a×b2/2 (a represents the long diameter of the tumor and b represents the short diameter of the tumor, which are in unit of mm; and V is calculated in unit of mm^3). […]"}, "[3]": {"tested_on": "vessel network model formed by culturing adult stem cells and vascular endothlial cells together", "experiment": "Formation of vessel network in vitro (adult stem cells co-cultured with vascular endothlial cells)", "format": "cell-based, human", "conditions": "for lengths of the formed vessel networks (Total Tube Length, TL): co-culture six days", "method": "First, we constructed a vessel network model formed by culturing adult stem cells and vascular endothlial cells together. Adult stem cells have the function of differentiating into pericytes, and can secrete cytokines required for angiogenesis to promote the formation of new vessels. The isolated and cultured adult stem cells were cultured using EGM medium for 3-6 generations to be used. The isolated and cultured human endothlial cells were derived from the cord blood of healthy infants (38-40 weeks), in which monocytes were removed by gradient centrifugation, and the cells were cultured in EGM medium to obtain primary vascular endothlial cells, and 4-8 generations were applied after passage. The adult stem cells were implanted into a cell culture dish, maintaining cell density of 6×10^6/cm^2, and the vascular endothlial cells were implanted on the trophoblast cells of the adult stem cells after the adult stem cells were incubated at 37° C., 5% CO2 for 3 hours, and the cell density of the vascular endothlial cells reached 1×10^6/cm^2. The two kinds of cells were co-cultured for six days, then the formation of tubular networks was observed, and the new vessel networks were labeled through CD31 fluorescence staining and horseradish peroxidase staining.\nDifferent doses of 3,4-diacetyl phenethyl caffeate (prepared according to conventional chemical method by the Laboratory of Peking University Health Science center) were co-cultured with the in vitro vessel network system. […] However, there is no significant difference among the total numbers of ECs of CD31+ in respective groups. The total numbers of ECs in the control group, DMSO group, 5 μm group, 10 μm group, 20 μm group, 50 μm group and 100 μm group are 7.52±1.24/mm^2, 8.66±1.31/mm^2, 8.87±1.59/mm^2, 6.0±1.72/mm^2, 6.22±1.42/mm^2, […], 8.33±0.79/mm^2 respectively, and there is no significant difference among respective groups through analysis."}}}
{"compound": "O=C(/C=C/c1ccc(O)c(O)c1)OCCc1ccccc1", "note": "[phenethyl caffeate]", "values": [{"measurement": "Length of the formed vessel network (Total Tube Length, TL, n = 8)", "setting": "[1]; 50 μM", "value": "332 ± 24"}, {"measurement": "Length of the formed vessel network (Total Tube Length, TL, n = 8)", "setting": "[1]; 100 μM", "value": "314 ± 27"}, {"measurement": "effect on tumor angiogenesis mediated by pericytes", "setting": "[1]", "value": "no inhibitory effect"}]}
{"compound": "CC(=O)Oc1ccc(/C=C/C(=O)OCCc2ccccc2)cc1OC(C)=O", "note": "[3,4-diacetyl phenethyl caffeate]", "values": [{"measurement": "Length of the formed vessel network (Total Tube Length, TL, n = 8)", "setting": "[1]; 50 μM", "value": "114 ± 20"}, {"measurement": "Length of the formed vessel network (Total Tube Length, TL, n = 8)", "setting": "[1]; 100 μM", "value": "20 ± 11"}, {"measurement": "effect on tumor angiogenesis mediated by pericytes", "setting": "[1]", "value": "inhibitory effect"}, {"measurement": "effect on tumor angiogenesis mediated by pericytes", "setting": "[1]; listed as diacetyl phenethyl caffeate", "value": "significant inhibitory effect"}, {"measurement": "effect on the growth of tumors", "setting": "[2]; result in words", "value": "inhibitory effect"}, {"measurement": "average tumor volume of the mice", "setting": "[2]; six days every week, FIG. 2", "value": "maintained at the original level, with no significant changes"}, {"measurement": "numbers of branchs (NB) of the vessels", "setting": "[3]; 50 μM group", "value": "0.13±0.026 /mm^2"}, {"measurement": "lengths of the formed vessel networks (Total Tube Length, TL)", "setting": "[3]; 50 μM group", "value": "0.084±0.032", "unit": "mm/mm^2"}, {"measurement": "numbers of branchs (NB) of the vessels", "setting": "[3]; 5 μm group", "value": "6.12±0.48 /mm^2"}, {"measurement": "total numbers of ECs (CD31+)", "setting": "[3]; 5 μm group", "value": "8.87±1.59 /mm^2"}, {"measurement": "lengths of the formed vessel networks (Total Tube Length, TL)", "setting": "[3]; 5 μm group", "value": "2.802±0.212", "unit": "mm/mm^2"}, {"measurement": "numbers of branchs (NB) of the vessels", "setting": "[3]; 10 μm group", "value": "1.55±0.17 /mm^2"}, {"measurement": "total numbers of ECs (CD31+)", "setting": "[3]; 10 μm group", "value": "6.0±1.72 /mm^2"}, {"measurement": "lengths of the formed vessel networks (Total Tube Length, TL)", "setting": "[3]; 10 μm group", "value": "0.874±0.117", "unit": "mm/mm^2"}, {"measurement": "numbers of branchs (NB) of the vessels", "setting": "[3]; 20 μm group", "value": "0.50±0.063 /mm^2"}, {"measurement": "total numbers of ECs (CD31+)", "setting": "[3]; 20 μm group", "value": "6.22±1.42 /mm^2"}, {"measurement": "lengths of the formed vessel networks (Total Tube Length, TL)", "setting": "[3]; 20 μm group", "value": "0.337±0.89", "unit": "mm/mm^2"}, {"measurement": "numbers of branchs (NB) of the vessels", "setting": "[3]; 100 μm group", "value": "0.04±0.001 /mm^2"}, {"measurement": "total numbers of ECs (CD31+)", "setting": "[3]; 100 μm group", "value": "8.33±0.79 /mm^2"}, {"measurement": "lengths of the formed vessel networks (Total Tube Length, TL)", "setting": "[3]; 100 μm group", "value": "0.0054±0.002", "unit": "mm/mm^2"}, {"measurement": "effect on the formation of vessel networks in vitro", "setting": "[3]; result in words", "value": "inhibitory effect"}]}
